Values after ≈ are worked out from the molar mass of the structure shown. Where two headings read alike, the source gives them in different places.
What was measured:
[1] = tested on: AGS human gastric carcinoma cell line; experiment: IC50 determination, MTS assay, 72 h (Example 1); format: cell-based; conditions: Homo sapiens, 72 hours of drug exposure, read-out: IC50
Method: (§1) The human gastric carcinoma cell lines selected for this assay were the following: Hs746T, HGC-27, and AGS cell lines. Hs746T and AGS cell lines were grown in Dulbecco's modified Eagle's medium (DMEM) supplemented with 10% Fetal Bovine Serum (FBS), 1.5 g/L sodium bicarbonate, 4.5 g/L glucose and 4 mM L-glutamine. HGC-27 cell line was grown in Iscove's modified Dulbecco's medium (IMDM) supplemented with 20% FBS and 2 mM L-glutamine.
(§2) The day before plating, the cells were fed with fresh, complete growth media. On the harvest (plating) day, cells were counted by Trypan Blue exclusion staining method.
(§3) Cells were harvested and seeded in 96 well microtiter plates at 10,000 cells density in 150 μL of media and incubated for 24 hours to allow the cells to attach before drug addition. To collect reference data, the MTS assay was done on untreated cells at time 0 (after incubation of cells for 24 hours).
(§4) The cytotoxic effect was measured by the MTS Assay (Tetrazolium), which is a colorimetric method for determining the number of viable cells. After the incubation period (24 hours for the Day 0 plate and 72 hours for the Test and Control plates), 25 μL of MTS+PMS solution was added to each microtiter well and incubated for 4 hours at 37° C. Plates were then removed from incubator and placed on plate shaker for 5 minutes (covered with aluminum foil for protection from light). Optical densities were read at 490 nm on spectrophotometer plate reader.
(§5) IC50 values were calculated from an average of two to four assays for each of the test agents.

[2] = tested on: Hs746T human gastric carcinoma cell line; experiment: IC50 determination, MTS assay, 72 h (Example 1); format: cell-based; conditions: Homo sapiens, 72 hours of drug exposure, read-out: IC50
Method: as §1, §2, §3, §4, §5

[3] = tested on: HGC-27 human gastric carcinoma cell line; experiment: IC50 determination, MTS assay, 72 h (Example 1); format: cell-based; conditions: Homo sapiens, 72 hours of drug exposure, read-out: IC50
Method: as §1, §2, §3, §4, §5

MRI-H-254 tumors = format: in vivo, mice
Method: Female athymic nude mice (Harlan Sprague Dawley, Madison, Wis.) were utilized for all experiments. Animals were housed in ventilated rack caging with food and water ad libitum. The mice were acclimated for at least 5 days prior to tumor implantation with tumor fragments. The Vehicle Control group contained 11 mice, groups 2-6 contained 8 mice/group, and the rest of groups contained 9 mice/group.
This cell line was grown and implanted to the animals as described in Example 11.
Tumor measurements were determined as disclosed in Example 4. […] Treatments were initiated on DPI 17.
PM00104 was provided in the form of vials of lyophilized PM00104 powder which was reconstituted with water for injection.
(§6) Tumor size measurements were recorded twice weekly from the treatment initiation until the termination of the study.
(§7) Mean, standard deviation and standard error of the mean were determined for tumor volume for all animal groups at all assessments. Student's t test was performed on tumor volumes at each measurement day, including at the end of the study, to determine whether there were any statistically significant differences between combination treatment groups and single monotherapy treatment groups.
The definition and criteria for the evaluation of potentiation and the degree of additivity for the combination therapy were the same as those disclose in Example 4.

[4] = tested on: MDA-MB-231 (breast cancer) cell line; experiment: IC50 determination, MIT (tetrazolium) assay, 72 h (Example 18); format: cell-based; conditions: Homo sapiens; MDA-MB-231, 72 hours of drug exposure
Method: (§8) Before plating, cell cultures were trypsinized and cell number estimated using an automated flow cytometer.
(§9) Cells were harvested and seeded in 96 well microtiter plates at the appropriate cell density (5,000-10,000 cells) in 150 μL of media and incubated for 24 hours to allow the cells to attach before drug addition.
(§10) After the incubation period (72 hours), 50 μL of MIT solution was added to each microtiter well and incubated for further 8 hours at 37° C. The culture medium was then removed and 50 μl, of DMSO were added to dissolve the MIT crystals. Optical densities were read at 540 nm on spectrophotometer microplate reader.
as §5

[5] = tested on: MCF-7 (breast cancer) cell line; experiment: as above; format: cell-based; conditions: Homo sapiens, MCF7; MCF-7, 72 hours of drug exposure
Method: as §8, §9, §10, §5

Hs746T tumors = format: in vivo, mice; conditions: for % Inhibition: PM00104 0.9 and doxorubicin 6 mg/kg/day
Description: Female athymic nude mice (Harlan Sprague Dawley, Madison, Wis.) were utilized for all experiments. Animals were housed in ventilated rack caging with food and water ad libitum. The mice were acclimated for at least 5 days prior to tumor implantation with a tumor cell suspension.
The tumor model used in these studies was Hs746T cell line, which was obtained from the ATCC (Manassas, Va.).
Treatments were initiated on DPI 15.
5-FU was provided as a solution which was further diluted with water for injection.
as §6, §7

[6] = PM00104 0.90 IV, doxorubicin 6 IP, paclitaxel 12.5 IP mg/kg/day (G2, G5, G6, G7, G8)
[7] = PM00104 0.9, 5-FU 50 (DPI 15) then 100 (DPI 22 & 29), irinotecan 20, doxorubicin 6 mg/kg/day

Structure (SMILES): COc1cccc2c1C(=O)c1c(O)c3c(c(O)c1C2=O)C[C@@](O)(C(=O)CO)C[C@@H]3O[C@H]1C[C@H](N)[C@H](O)[C@H](C)O1 [Doxorubicin, doxorubicin]
- IC50 [1]: 0.156 µg/mL (≈ 0.287 µM)
- IC50 [2]: 8.97 µg/mL (≈ 16.5 µM)
- IC50 [3]: 0.177 µg/mL (≈ 0.326 µM)
- % T/C on day 17 (MRI-H-254 tumors; [6]): 98.2%
- % T/C on day 20 (MRI-H-254 tumors; [6]): 93.5%
- % T/C on day 24 (MRI-H-254 tumors; [6]): 76.2%
- % T/C on day 27 (MRI-H-254 tumors; [6]): 64.4%
- % T/C on day 32 (MRI-H-254 tumors; [6]): 56.3%
- % T/C on day 35 (MRI-H-254 tumors; [6]): 24.8%
- % T/C on day 39 (MRI-H-254 tumors; [6]): 19.7%
- % T/C on day 47 (MRI-H-254 tumors; [6]): 15.7%
- % Inhibition (MRI-H-254 tumors; day 14, PM00104 0.23, doxorubicin 6, paclitaxel 12.5 mg/kg/day): 1.8%
- % Inhibition (MRI-H-254 tumors; day 14, PM00104 0.45, doxorubicin 6, paclitaxel 12.5 mg/kg/day): 1.8%
- % Inhibition (MRI-H-254 tumors; day 14, PM00104 0.9 and doxorubicin 6 mg/kg/day): 1.8%
- % Inhibition (MRI-H-254 tumors; day 20, PM00104 0.23, doxorubicin 6, paclitaxel 12.5 mg/kg/day): 6.5%
- % Inhibition (MRI-H-254 tumors; day 20, PM00104 0.45, doxorubicin 6, paclitaxel 12.5 mg/kg/day): 6.5%
- % Inhibition (MRI-H-254 tumors; day 20, PM00104 0.9 and doxorubicin 6 mg/kg/day): 6.5%
- % Inhibition (MRI-H-254 tumors; day 24, PM00104 0.23, doxorubicin 6, paclitaxel 12.5 mg/kg/day): 23.8%
- % Inhibition (MRI-H-254 tumors; day 24, PM00104 0.45, doxorubicin 6, paclitaxel 12.5 mg/kg/day): 23.8%
- % Inhibition (MRI-H-254 tumors; day 24, PM00104 0.9 and doxorubicin 6 mg/kg/day): 23.8%
- % Inhibition (MRI-H-254 tumors; day 27, PM00104 0.23, doxorubicin 6, paclitaxel 12.5 mg/kg/day): 35.6%
- % Inhibition (MRI-H-254 tumors; day 27, PM00104 0.45, doxorubicin 6, paclitaxel 12.5 mg/kg/day): 35.6%
- % Inhibition (MRI-H-254 tumors; day 27, PM00104 0.9 and doxorubicin 6 mg/kg/day): 35.6%
- % Inhibition (MRI-H-254 tumors; day 32, PM00104 0.23, doxorubicin 6, paclitaxel 12.5 mg/kg/day): 43.7%
- % Inhibition (MRI-H-254 tumors; day 32, PM00104 0.45, doxorubicin 6, paclitaxel 12.5 mg/kg/day): 43.7%
- % Inhibition (MRI-H-254 tumors; day 32, PM00104 0.9 and doxorubicin 6 mg/kg/day): 43.7%
- % Inhibition (MRI-H-254 tumors; day 35, PM00104 0.23, doxorubicin 6, paclitaxel 12.5 mg/kg/day): 75.2%
- % Inhibition (MRI-H-254 tumors; day 35, PM00104 0.45, doxorubicin 6, paclitaxel 12.5 mg/kg/day): 75.2%
- % Inhibition (MRI-H-254 tumors; day 35, PM00104 0.9 and doxorubicin 6 mg/kg/day): 75.2%
- % Inhibition (MRI-H-254 tumors; day 39, PM00104 0.23, doxorubicin 6, paclitaxel 12.5 mg/kg/day): 80.3%
- % Inhibition (MRI-H-254 tumors; day 39, PM00104 0.45, doxorubicin 6, paclitaxel 12.5 mg/kg/day): 80.3%
- % Inhibition (MRI-H-254 tumors; day 39, PM00104 0.9 and doxorubicin 6 mg/kg/day): 80.3%
- % Inhibition (MRI-H-254 tumors; day 47, PM00104 0.23, doxorubicin 6, paclitaxel 12.5 mg/kg/day): 84.3%
- % Inhibition (MRI-H-254 tumors; day 47, PM00104 0.9 and doxorubicin 6 mg/kg/day): 84.3%
- IC50 [4]: 1900 nM
- IC50 [5]: 4000 nM
- % T/C on day 15 (Hs746T tumors; [7]): 104.2%
- % T/C on day 19 (Hs746T tumors; [7]): 79.8%
- % T/C on day 26 (Hs746T tumors; [7]): 48.9%
- % T/C on day 29 (Hs746T tumors; [7]): 40.2%
- % T/C on day 33 (Hs746T tumors; [7]): 51.4%
- % Inhibition (Hs746T tumors; day 15): −4.2%
- % Inhibition (Hs746T tumors; day 19): 20.2%
- % Inhibition (Hs746T tumors; day 22): 52.6%
- % Inhibition (Hs746T tumors; day 26): 51.1%
- % Inhibition (Hs746T tumors; day 29): 59.8%
- % Inhibition (Hs746T tumors; day 33): 48.6%
